Laboratory results reported in US9062124B2, “GIP-based mixed agonists for treatment of metabolic disorders and obesity” (priority 2008, dated 2015).
Where a SMILES comes first, the peptide text is derived from it. Bridges are numbered along the chain shown (N, C = ends). The star is where a group is joined. Bz = O=C(c1ccccc1)*

Columns and labels:
Format in all cases: cell-based
[1] = target: T1, GLP-1 receptor (Homo sapiens, UniProt P43220); experiment: cAMP synthesis functional assay (firefly luciferase reporter in HEK293 cells), GLP-1 receptor; details: Table 1; for GLP-1 Receptor relative activity: relative to the native hormone of the indicated receptor
T1 construct: expressed in transfected cells; host or cells: HEK293
T1 sequence (P43220 24-463, species assumed): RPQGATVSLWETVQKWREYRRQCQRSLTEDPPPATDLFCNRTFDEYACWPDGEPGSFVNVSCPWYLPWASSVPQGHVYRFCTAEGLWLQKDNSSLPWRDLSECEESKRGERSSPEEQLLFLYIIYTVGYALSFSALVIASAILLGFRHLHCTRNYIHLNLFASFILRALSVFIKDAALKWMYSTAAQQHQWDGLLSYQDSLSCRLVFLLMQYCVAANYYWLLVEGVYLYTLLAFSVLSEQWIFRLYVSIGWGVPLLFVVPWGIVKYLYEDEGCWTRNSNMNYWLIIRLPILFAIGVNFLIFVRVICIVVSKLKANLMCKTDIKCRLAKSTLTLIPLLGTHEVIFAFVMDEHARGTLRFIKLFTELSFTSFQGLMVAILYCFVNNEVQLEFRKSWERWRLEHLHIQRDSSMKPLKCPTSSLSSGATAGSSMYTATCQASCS

[2] = target: T2, GIP receptor (Homo sapiens, UniProt P48546); experiment: cAMP synthesis functional assay (firefly luciferase reporter in HEK293 cells), GIP receptor; details: Table 1; relative to the native hormone of the indicated receptor
T2 construct: expressed in transfected cells; host or cells: HEK293
T2 sequence (P48546 22-466): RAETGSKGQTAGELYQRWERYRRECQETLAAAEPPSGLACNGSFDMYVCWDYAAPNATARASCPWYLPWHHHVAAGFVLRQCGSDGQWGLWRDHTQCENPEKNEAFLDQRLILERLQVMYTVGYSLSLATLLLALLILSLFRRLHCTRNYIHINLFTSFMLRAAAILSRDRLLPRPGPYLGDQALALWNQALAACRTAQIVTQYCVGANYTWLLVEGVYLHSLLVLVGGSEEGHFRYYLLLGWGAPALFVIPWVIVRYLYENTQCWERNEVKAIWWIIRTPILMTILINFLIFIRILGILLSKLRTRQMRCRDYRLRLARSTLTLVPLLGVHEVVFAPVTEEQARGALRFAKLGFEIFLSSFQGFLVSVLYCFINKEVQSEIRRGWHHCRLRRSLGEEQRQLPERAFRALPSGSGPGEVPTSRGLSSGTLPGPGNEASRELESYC

[3] = target: T3, glucagon receptor (Homo sapiens, UniProt P47871); experiment: cAMP synthesis functional assay (firefly luciferase reporter in HEK293 cells), glucagon receptor; details: Table 1; for Glucagon Receptor relative activity: relative to the native hormone of the indicated receptor; for EC50: Glucagon Receptor EC50, nM
T3 construct: expressed in transfected cells; host or cells: HEK293
T3 sequence (P47871 26-477): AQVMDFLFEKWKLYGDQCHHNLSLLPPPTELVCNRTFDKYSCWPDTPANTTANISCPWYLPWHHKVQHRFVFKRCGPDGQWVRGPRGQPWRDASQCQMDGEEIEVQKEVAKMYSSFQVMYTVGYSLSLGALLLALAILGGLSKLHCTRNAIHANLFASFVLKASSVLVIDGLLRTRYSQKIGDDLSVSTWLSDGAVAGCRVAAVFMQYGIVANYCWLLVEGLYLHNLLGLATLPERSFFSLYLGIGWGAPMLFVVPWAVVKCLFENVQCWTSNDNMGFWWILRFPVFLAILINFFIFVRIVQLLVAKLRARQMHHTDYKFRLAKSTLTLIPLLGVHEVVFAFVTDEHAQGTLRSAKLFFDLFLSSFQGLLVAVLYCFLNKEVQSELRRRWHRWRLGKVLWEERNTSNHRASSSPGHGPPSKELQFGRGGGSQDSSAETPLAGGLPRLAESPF

Row | Compound | GLP-1 Receptor relative activity [1] [%] | GIP Receptor relative activity [2] [%] | Glucagon Receptor relative activity [3] [%] | EC50 [3] [nM] | EC50 ([1]; GLP-1 Receptor EC50, nM) [nM]
1 | CC[C@H](C)[C@H](NC(=O)[C@H](CO)NC(=O)[C@H](Cc1ccc(O)cc1)NC(=O)[C@H](CC(=O)O)NC(=O)[C@H](CO)NC(=O)[C@@H](NC(=O)[C@H](Cc1ccccc1)NC(=O)[C@@H](NC(=O)CNC(=O)[C@H](CCC(N)=O)NC(=O)[C@H](CO)NC(=O)CNC(=O)c1ccccc1)[C@@H](C)O)[C@@H](C)O)C(=O)N[C@@H](Cc1ccc(O)cc1)C(=O)N[C@@H](CC(C)C)C(=O)N[C@@H](CC(=O)O)C(=O)N[C@H]1CCC(=O)NCCCC[C@@H](C(=O)N[C@@H](CCC(=O)O)C(=O)N[C@@H](Cc2ccccc2)C(=O)N[C@H](C(=O)N[C@@H](CC(N)=O)C(=O)N[C@@H](Cc2c[nH]c3ccccc23)C(=O)N[C@@H](CC(C)C)C(=O)N[C@@H](CC(C)C)C(=O)N[C@@H](C)C(=O)NCC(=O)NCC(=O)N2CCC[C@H]2C(=O)N[C@@H](CO)C(=O)N[C@@H](CO)C(=O)NCC(=O)N[C@@H](C)C(=O)N2CCC[C@H]2C(=O)N2CCC[C@H]2C(=O)N2CCC[C@H]2C(=O)N[C@@H](CO)C(N)=O)C(C)C)NC(=O)[C@H](C)NC(=O)[C@H](C)NC(=O)[C@H](CCC(N)=O)NC1=O [mt-154] (Bz-GSQGTFTSDYSIYLDEQAAKEFVNWLLAGGPSSGAPPPS-NH2; lactam 16-20) | 0.70 | 1.07 | 7.40 | – | –
2 | CC(C)C[C@H](NC(=O)[C@H](CC(C)C)NC(=O)[C@H](Cc1c[nH]c2ccccc12)NC(=O)[C@H](CC(N)=O)NC(=O)[C@@H](NC(=O)[C@H](Cc1ccccc1)NC(=O)[C@H](CCC(=O)O)NC(=O)[C@H](CCCCN)NC(=O)[C@H](C)NC(=O)[C@H](C)NC(=O)[C@H](CCC(N)=O)NC(=O)[C@@H]1CCC(=O)NCCCC[C@H](NC(=O)[C@H](CO)NC(=O)[C@H](Cc2ccc(O)cc2)NC(=O)[C@H](CC(=O)O)NC(=O)[C@H](CO)NC(=O)[C@@H](NC(=O)[C@H](Cc2ccccc2)NC(=O)[C@@H](NC(=O)CNC(=O)[C@H](CCC(N)=O)NC(=O)[C@H](CO)NC(=O)[C@@H](N)Cc2ccc(O)cc2)[C@@H](C)O)[C@@H](C)O)C(=O)N[C@@H](Cc2ccc(O)cc2)C(=O)N[C@@H](CC(C)C)C(=O)N[C@@H](CC(=O)O)C(=O)N1)C(C)C)C(=O)N[C@@H](C)C(=O)NCC(=O)NCC(=O)N1CCC[C@H]1C(=O)N[C@@H](CO)C(=O)N[C@@H](CO)C(=O)NCC(=O)N[C@@H](C)C(=O)N1CCC[C@H]1C(=O)N1CCC[C@H]1C(=O)N1CCC[C@H]1C(=O)N[C@@H](CO)C(N)=O [mt-155] (H-YSQGTFTSDYSKYLDEQAAKEFVNWLLAGGPSSGAPPPS-NH2; lactam 12-16; N-terminus assumed) | 98.99 | 7.02 | 10.93 | 1.28 | –
3 | CC[C@H](C)[C@H](NC(=O)[C@H](CO)NC(=O)[C@H](Cc1ccc(O)cc1)NC(=O)[C@H](CC(=O)O)NC(=O)[C@H](CO)NC(=O)[C@@H](NC(=O)[C@H](Cc1ccccc1)NC(=O)[C@@H](NC(=O)CNC(=O)[C@H](CCC(N)=O)NC(=O)[C@H](CO)NC(=O)[C@@H](N)Cc1ccc(O)cc1)[C@@H](C)O)[C@@H](C)O)C(=O)N[C@@H](Cc1ccc(O)cc1)C(=O)N[C@@H](CC(C)C)C(=O)N[C@@H](CC(=O)O)C(=O)N[C@@H](CCC(=O)O)C(=O)N[C@@H](CCC(N)=O)C(=O)N[C@@H](C)C(=O)N[C@@H](C)C(=O)N[C@H]1CCCCNC(=O)CC[C@@H](C(=O)N[C@@H](Cc2c[nH]c3ccccc23)C(=O)N[C@@H](CC(C)C)C(=O)N[C@@H](CC(C)C)C(=O)N[C@@H](C)C(=O)NCC(=O)NCC(=O)N2CCC[C@H]2C(=O)N[C@@H](CO)C(=O)N[C@@H](CO)C(=O)NCC(=O)N[C@@H](C)C(=O)N2CCC[C@H]2C(=O)N2CCC[C@H]2C(=O)N2CCC[C@H]2C(=O)N[C@@H](CO)C(N)=O)NC(=O)[C@H](C(C)C)NC(=O)[C@H](Cc2ccccc2)NC(=O)[C@H](CCC(=O)O)NC1=O [mt-156] (H-YSQGTFTSDYSIYLDEQAAKEFVEWLLAGGPSSGAPPPS-NH2; lactam 20-24; N-terminus assumed) | 12.20 | 4.41 | 6.10 | – | –
4 | CC[C@H](C)[C@H](NC(=O)[C@H](CO)NC(=O)[C@H](Cc1ccc(O)cc1)NC(=O)[C@H](CC(=O)O)NC(=O)[C@H](CO)NC(=O)[C@@H](NC(=O)[C@H](Cc1ccccc1)NC(=O)[C@@H](NC(=O)CNC(=O)[C@H](CCC(N)=O)NC(=O)[C@H](CO)NC(=O)[C@@H](N)Cc1ccc(O)cc1)[C@@H](C)O)[C@@H](C)O)C(=O)N[C@@H](Cc1ccc(O)cc1)C(=O)N[C@@H](CC(C)C)C(=O)N[C@@H](CC(=O)O)C(=O)N[C@@H](CCC(=O)O)C(=O)N[C@@H](CCC(N)=O)C(=O)N[C@@H](C)C(=O)N[C@@H](C)C(=O)N[C@@H](CCCCN)C(=O)N[C@@H](CCC(=O)O)C(=O)N[C@@H](Cc1ccccc1)C(=O)N[C@H](C(=O)N[C@H]1CCC(=O)NCCCC[C@@H](C(=O)NCC(=O)NCC(=O)N2CCC[C@H]2C(=O)N[C@@H](CO)C(=O)N[C@@H](CO)C(=O)NCC(=O)N[C@@H](C)C(=O)N2CCC[C@H]2C(=O)N2CCC[C@H]2C(=O)N2CCC[C@H]2C(=O)N[C@@H](CO)C(N)=O)NC(=O)[C@H](CC(C)C)NC(=O)[C@H](CC(C)C)NC(=O)[C@H](Cc2c[nH]c3ccccc23)NC1=O)C(C)C [mt-157] (H-YSQGTFTSDYSIYLDEQAAKEFVEWLLKGGPSSGAPPPS-NH2; lactam 24-28; N-terminus assumed) | 37.04 | 4.00 | 6.92 | – | –
5 | CC[C@H](C)[C@H](NC(=O)[C@H](CO)NC(=O)[C@H](Cc1ccc(O)cc1)NC(=O)[C@H](CC(=O)O)NC(=O)[C@H](CO)NC(=O)[C@@H](NC(=O)[C@H](Cc1ccccc1)NC(=O)[C@@H](NC(=O)CNC(=O)[C@H](CCC(N)=O)NC(=O)[C@H](CO)NC(=O)[C@@H](N)Cc1ccc(O)cc1)[C@@H](C)O)[C@@H](C)O)C(=O)N[C@@H](Cc1ccc(O)cc1)C(=O)N[C@@H](CC(C)C)C(=O)N[C@@H](CC(=O)O)C(=O)N[C@H]1CCC(=O)NCCCC[C@@H](C(=O)N[C@@H](CCC(=O)O)C(=O)N[C@@H](Cc2ccccc2)C(=O)N[C@H](C(=O)N[C@@H](CC(N)=O)C(=O)N[C@@H](Cc2c[nH]c3ccccc23)C(=O)N[C@@H](CC(C)C)C(=O)N[C@@H](CC(C)C)C(=O)N[C@@H](C)C(=O)NCC(N)=O)C(C)C)NC(=O)[C@H](C)NC(=O)[C@H](C)NC(=O)[C@H](CCC(N)=O)NC1=O [mt-163] (H-YSQGTFTSDYSIYLDEQAAKEFVNWLLAG-NH2; lactam 16-20; N-terminus assumed) | 30.00 | 4.73 | 251.85 | – | 0.04
6 | CC[C@H](C)[C@H](NC(=O)[C@H](CO)NC(=O)[C@H](Cc1ccc(O)cc1)NC(=O)[C@H](CC(=O)O)NC(=O)[C@H](CO)NC(=O)[C@@H](NC(=O)[C@H](Cc1ccccc1)NC(=O)[C@@H](NC(=O)CNC(=O)[C@H](CCC(N)=O)NC(=O)[C@H](CO)NC(=O)[C@@H](N)Cc1ccc(O)cc1)[C@@H](C)O)[C@@H](C)O)C(=O)N[C@@H](Cc1ccc(O)cc1)C(=O)N[C@@H](CC(C)C)C(=O)N[C@@H](CC(=O)O)C(=O)N[C@@H](CCC(=O)O)C(=O)N[C@H]1CCC(=O)NCCCC[C@@H](C(=O)N[C@@H](CCC(=O)O)C(=O)N[C@@H](Cc2ccccc2)C(=O)N[C@H](C(=O)N[C@@H](CC(N)=O)C(=O)N[C@@H](Cc2c[nH]c3ccccc23)C(=O)N[C@@H](CC(C)C)C(=O)N[C@@H](CC(C)C)C(=O)N[C@@H](C)C(=O)NCC(=O)NCC(=O)N2CCC[C@H]2C(=O)N[C@@H](CO)C(=O)N[C@@H](CO)C(=O)NCC(=O)N[C@@H](C)C(=O)N2CCC[C@H]2C(=O)N2CCC[C@H]2C(=O)N2CCC[C@H]2C(=O)N[C@@H](CO)C(N)=O)C(C)C)NC(=O)[C@H](C)NC(=O)[C@H](C)NC1=O [mt-167] (H-YSQGTFTSDYSIYLDEEAAKEFVNWLLAGGPSSGAPPPS-NH2; lactam 17-20; N-terminus assumed) | 7.94 | 5.01 | 34.53 | – | –
7 | CC[C@H](C)[C@H](NC(=O)[C@H](CO)NC(=O)[C@H](Cc1ccc(O)cc1)NC(=O)[C@H](CC(=O)O)NC(=O)[C@H](CO)NC(=O)[C@@H](NC(=O)[C@H](Cc1ccccc1)NC(=O)[C@@H](NC(=O)CNC(=O)[C@H](CCC(N)=O)NC(=O)[C@H](CO)NC(=O)[C@@H](N)Cc1ccc(O)cc1)[C@@H](C)O)[C@@H](C)O)C(=O)N[C@@H](Cc1ccc(O)cc1)C(=O)N[C@@H](CC(C)C)C(=O)N[C@@H](CC(=O)O)C(=O)N[C@@H](CCC(=O)O)C(=O)N[C@@H](CCC(N)=O)C(=O)N[C@H]1CCCCNC(=O)CC[C@@H](C(=O)N[C@@H](Cc2ccccc2)C(=O)N[C@H](C(=O)N[C@@H](CC(N)=O)C(=O)N[C@@H](Cc2c[nH]c3ccccc23)C(=O)N[C@@H](CC(C)C)C(=O)N[C@@H](CC(C)C)C(=O)N[C@@H](C)C(=O)NCC(=O)NCC(=O)N2CCC[C@H]2C(=O)N[C@@H](CO)C(=O)N[C@@H](CO)C(=O)NCC(=O)N[C@@H](C)C(=O)N2CCC[C@H]2C(=O)N2CCC[C@H]2C(=O)N2CCC[C@H]2C(=O)N[C@@H](CO)C(N)=O)C(C)C)NC(=O)[C@H](CCCCN)NC(=O)[C@H](C)NC1=O [mt-168] (H-YSQGTFTSDYSIYLDEQKAKEFVNWLLAGGPSSGAPPPS-NH2; lactam 18-21; N-terminus assumed) | 1.45 | 0.32 | 4.79 | 2.61 | –
